Laboratory results published in US20140031325A1, “COMBINATION THERAPY WITH LENALIDOMIDE AND A CDK INHIBITOR FOR TREATING MULTIPLE MYELOMA” (Celgene Corporation, priority 2010, published 2014).

Key:
[1] = tested on: newly diagnosed multiple myeloma; assay: Combination therapy of lenalidomide and dexamethasone in patients with newly diagnosed multiple myeloma; assay type: in vivo
Text: Most adverse events were manageable with dose modification. The combination therapy is an effective first-line therapy for the treatment of patients with newly diagnosed multiple myeloma.

multiple myeloma = assay: Combination therapy of lenalidomide and CDK4/CDK6 inhibitor (PD 0332991) in patients with multiple myeloma; assay type: in vivo
Procedure: Lenalidomide and a CDK4/CDK6 inhibitor control tumor expansion and enhance tumor killing in the treatment of multiple myeloma. Patients with multiple myeloma are treated with lenalidomide (Revlimid®, 5 to 25 mg/day orally on days 1-21 in a 28 days cycle) and a CDK4/CDK6 inhibitor (PD 0332991, 25 to 150 mg/day orally on days 1-21 in a 28 days cycle). Maintenance treatment are continued until the disease progression.

[2] = lenalidomide in combination with dexamethasone, newly diagnosed multiple myeloma

## Nc1cccc2c1CN(C1CCC(=O)NC1=O)C2=O (stereo not drawn) [lenalidomide, 3-(4-amino-1-oxo-1,3-dihydro-isoindol-2-yl)-piperidine-2,6-dione]
[1]; [2]
  overall response rate and complete response: high overall response rate and complete response
  progression-free survival at 1 year: significantly increased progression-free survival at 1 year
  tolerability: well tolerated
[1]; newly diagnosed multiple myeloma patients, lenalidomide 25 mg/day days 1-21 of 28-day cycle in combination with dexamethasone 40 mg/day (days 1-4, 9-12, 17-20 or days 1, 8, 15, 22)
  patient response: most of patients responded
Multiple myeloma; Revlimid 5 to 25 mg/day orally days 1-21 of 28-day cycle in combination with PD 0332991 25 to 150 mg/day orally days 1-21
  activity of the therapy in multiple myeloma patients: highly active
Multiple myeloma; Revlimid 5 to 25 mg/day orally in combination with PD 0332991 25 to 150 mg/day orally, multiple myeloma patients
  tolerability: well tolerated
